The text below walks through data of patent publication US12012398B2, “Bicyclic compounds as androgen receptor modulators” (NIDO BIOSCIENCES, INC., priority 2021, dated 2024).

Molecules are shown by their SMILES. Where only a bound is given, the exact number is not on record here.

The IC50 is the point on the concentration scale where inhibition reaches its midpoint.

In one test the test system is LNCaP cells expressing ARR2PB-FireflyLuc and CMV-RenillaLuc. The test is described as follows: LNCaP ARR2PB-FireflyLuc reporter assay, antagonist mode.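 Note: IC50 bins in nM.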 It is filed as cell-based. Particulars: +0.5 nM DHT, 48 h at 37° C., read-out: LNCap Antagonist Archive: IC50. The method, then: LNCaP cells expressing ARR2PB-FireflyLuc and CMV-RenillaLuc were treated with indicated concentrations of test compounds, enzalutamide (negative control), or DHT (positive control)+/−0.5 nM DHT for 48 h at 37° C. Fluorescent signals were read with the ImageXpress Micro Confocal System. Remaining activity (antagonist mode) was calculated as % Remaining Activity=100×[(ReadSample−LCave)/(HCave−LCave)] where HC is cells treated with 0.5 nM DHT only and LC is cells treated with 10 uM enzalutamide+0.5 nM DHT. Activation (agonist mode) was calculated as % Activation=100×[(ReadSample−LCave)/(HCave−LCave)] where HO is cells treated with 1 uM DHT and LC is cells treated with DMSO. Dose response curves and IC50 values were calculated using non-linear regression analysis in XLfit.
The designation “A” indicates an IC50 value of >10 μM, “B” indicates an IC50 value between 1 μM and 10 μM; “C” indicates an IC50 value between 100 nM and 1 μM; and “D” indicates an IC50 value of less than 100 nM.
(In general: In a reporter assay the amount or activity of a reporter protein is the signal.)
In the case of `CN(C(=O)c1cc2ccnc(Cl)c2n1C)C12CC(F)(C1)C2` [Example 128, 7-chloro-N-{3-fluorobicyclo[1.1.1]pentan-1-yl}-N,1-dimethylpyrrolo[2,3-c]pyridine-2-carboxamide], the IC50 is 0.1 to 1 µM.

Still in this test, the particulars now being: Homo sapiens, LNCaP, 48 h, +0.5 nM DHT, 48 h at 37° C., read-out: LNCap Antagonist Archive: IC50.
For the compound `CN(C(=O)c1cc2cccc(Cl)c2[nH]1)C1CCCC1` [Example 30, 7-chloro-N-cyclopentyl-N-methyl-1H-indole-2-carboxamide], the IC50 was in the range of 0.1 to 1 µM.

Consider `CC(C)N(Cc1ccco1)C(=O)c1cc2cccc(C#N)c2[nH]1` [Example 3, 7-cyano-N-(furan-2-ylmethyl)-N-isopropyl-1H-indole-2-carboxamide], for which the IC50 was 1 to 10 µM.

In the case of `CN(C(=O)c1cc2ccnc(Cl)c2[nH]1)C12CC(F)(C1)C2` [Example 98, 7-chloro-N-[3-fluorobicyclo[1.1.1]pentan-1-yl]-N-methyl-1H-pyrrolo[2,3-c]pyridine-2-carboxamide], the IC50 fell in the range of 0.1 to 1 µM.

In the case of `CN(CC1CCCC1)C(=O)c1cc2cccc(Cl)c2[nH]1` [Example 70, 7-Chloro-N-(cyclopentylmethyl)-N-methyl-1H-indole-2-carboxamide], the IC50 lay in the range of 1 to 10 µM.

On to `C[Si](C)(C)CCOCn1c(C(=O)NC23CC(O)(C2)C3)cc2cccc(Cl)c21` [Example 88, 7-chloro-N-(3-hydroxybicyclo[1.1.1]pentan-1-yl)-1-((2-(trimethylsilyl)ethoxy)methyl)-1H-indole-2-carboxamide], for which the IC50 was in the range of 1 to 10 µM.

As for `COc1nccc2cc(C(=O)N(C)C34CC(C3)C4)[nH]c12` [Example 96, N-[bicyclo[1.1.1]pentan-1-yl]-7-methoxy-N-methyl-1H-pyrrolo[2,3-c]pyridine-2-carboxamide], the IC50 lay in the range of 1 to 10 µM.

For `O=C(NC12CC(F)(C1)C2)c1cc2ccnc(Cl)c2n1CCO` [Example 138, 7-chloro-N-{3-fluorobicyclo[1.1.1]pentan-1-yl}-1-(2-hydroxyethyl)pyrrolo[2,3-c]pyridine-2-carboxamide], the IC50 was in the range of 1 to 10 µM.

Take `Cn1c(C(=O)NC23CC(F)(C2)C3)c(F)c2ccnc(Cl)c21` [Example 140, 7-chloro-3-fluoro-N-{3-fluorobicyclo[1.1.1]pentan-1-yl}-1-methylpyrrolo[2,3-c]pyridine-2-carboxamide]: the IC50 fell in the range of 0.1 to 1 µM.

`N#Cc1ccc(NC(=O)c2cc3cccc(Cl)c3[nH]2)cc1` [Example 68, 7-chloro-N-(4-cyanophenyl)-1H-indole-2-carboxamide]: the IC50 was 1 to 10 µM.

For the compound `Cn1c(C(=O)NC23CC(F)(C2)C3)cc2ccnc(C(F)(F)F)c21` [Example 154, N-(3-fluorobicyclo[1.1.1]pentan-1-yl)-1-methyl-7-(trifluoromethyl)-1H-pyrrolo[2,3-c]pyridine-2-carboxamide], the IC50 lay in the range of 1 to 10 µM.

As for `CN(C(=O)c1cc2cccc(Cl)c2[nH]1)C1CCOC1` (centres unmarked) [Example 31, 7-chloro-N-methyl-N-(oxolan-3-yl)-1H-indole-2-carboxamide], the IC50 lay in the range of 0.1 to 1 µM.

`Cn1c(C(=O)NC23CC(F)(C2)C3)cc2ccnc(Cl)c21` [Example 110, 7-chloro-N-[3-fluorobicyclo[1.1.1]pentan-1-yl]-1-methylpyrrolo[2,3-c]pyridine-2-carboxamide]: the IC50 lay in the range of 0.1 to 1 µM.

With `CC(C)N(Cc1cnco1)C(=O)c1cc2cccc(C#N)c2[nH]1` [Example 66, 7-cyano-N-isopropyl-N-(1,3-oxazol-5-ylmethyl)-1H-indole-2-carboxamide], the IC50 is 1 to 10 µM.

With `CC(C)N(Cc1ncco1)C(=O)c1cc2ccc(F)cc2[nH]1` [Example 2, 6-fluoro-N-isopropyl-N-(1,3-oxazol-2-ylmethyl)-1H-indole-2-carboxamide], the IC50 was more than 10 µM.

As to `CN(C(=O)c1cc2ccc(F)cc2[nH]1)c1ccncc1` [Example 15, 6-fluoro-N-methyl-N-(pyridin-4-yl)-1H-indole-2-carboxamide], the IC50 was more than 10 µM.

With `O=C(NC1CCCC1)c1cc2cccc(Cl)c2[nH]1` [Example 69, 7-chloro-N-cyclopentyl-1H-indole-2-carboxamide], the IC50 is more than 10 µM.

In the case of `O=C(NC12CC(O)(C1)C2)c1cc2ccnc(Cl)c2[nH]1` [Example 116, 7-chloro-N-{3-hydroxybicyclo[1.1.1]pentan-1-yl}-1H-pyrrolo[2,3-c]pyridine-2-carboxamide], the IC50 is more than 10 µM.

Consider `Cn1c(C(=O)NC23CC(C2)C3)cc2ccncc21` [Example 156, N-(bicyclo[1.1.1]pentan-1-yl)-1-methyl-1H-pyrrolo[2,3-c]pyridine-2-carboxamide], for which the IC50 lay within 0.1 to 1 µM.

With `O=C(NC12CC(C1)C2)c1[nH]c2c(Cl)cccc2c1C1CC1` [Example 105, N-[bicyclo[1.1.1]pentan-1-yl]-7-chloro-3-cyclopropyl-1H-indole-2-carboxamide], the IC50 is 1 to 10 µM.

As for `O=C(c1cc2cccc(Cl)c2[nH]1)N(c1ccc(F)cc1)C1CCOC1` (centres unmarked) [Example 58, 7-chloro-N-(4-fluorophenyl)-N-(tetrahydrofuran-3-yl)-1H-indole-2-carboxamide], the IC50 is 0.1 to 1 µM.

For `C[C@H]1OCC[C@@H]1NC(=O)c1cc2cccc(Cl)c2[nH]1` [Example 61, 7-chloro-N-[(2R,3S)-2-methyloxolan-3-yl]-1H-indole-2-carboxamide], the IC50 lay within 0.1 to 1 µM.

As to `COCCNC(=O)c1cc2ccc(F)cc2n1-c1ncccn1` [Example 54, 6-fluoro-N-(2-methoxyethyl)-1-(pyrimidin-2-yl)-1H-indole-2-carboxamide], the IC50 is more than 10 µM.

In the case of `CC(C)N(Cc1ccccn1)C(=O)c1cc2ccc(F)cc2[nH]1` [Example 7, 6-fluoro-N-isopropyl-N-(pyridin-2-ylmethyl)-1H-indole-2-carboxamide], the IC50 is more than 10 µM.

Turning to `CN(C(=O)c1cc2ccnc(Cl)c2n1C)C12CC(F)(C1)C2` [Example 128, 7-chloro-N-{3-fluorobicyclo[1.1.1]pentan-1-yl}-N,1-dimethylpyrrolo[2,3-c]pyridine-2-carboxamide], the IC50 was less than 0.1 µM.

As to `CN(C(=O)c1cc2cccc(Cl)c2[nH]1)C1CCCNC1` (centres unmarked) [Example 42, 7-chloro-N-methyl-N-(piperidin-3-yl)-1H-indole-2-carboxamide], the IC50 was more than 10 µM.

Regarding `Cn1c(C(=O)NC2CCC2)cc2ccnc(Cl)c21` [Example 143, 7-chloro-N-cyclobutyl-1-methylpyrrolo[2,3-c]pyridine-2-carboxamide], the IC50 lay in the range of 0.1 to 1 µM.

On to `CCn1c(C(=O)N(C)C23CC(F)(C2)C3)cc2ccnc(C#N)c21` [Example 151, 7-cyano-1-ethyl-N-(3-fluorobicyclo[1.1.1]pentan-1-yl)-N-methyl-1H-pyrrolo[2,3-c]pyridine-2-carboxamide], for which the IC50 was 0.1 to 1 µM.

Consider `CN(C)C(=O)c1cc2cccc(Cl)c2[nH]1` [Example 29, 7-chloro-N,N-dimethyl-1H-indole-2-carboxamide], for which the IC50 was 1 to 10 µM.

As to `CN(C(=O)c1cc2ccc(F)cc2[nH]1)C1CC(F)(F)C1` [Example 92, N-(3,3-difluorocyclobutyl)-6-fluoro-N-methyl-1H-indole-2-carboxamide], the IC50 was in the range of 0.1 to 1 µM.

For `CC(C)N(Cc1ccon1)C(=O)c1cc2ccc(F)cc2[nH]1` [Example 5, 6-fluoro-N-isopropyl-N-(1,2-oxazol-3-ylmethyl)-1H-indole-2-carboxamide], the IC50 was 1 to 10 µM.

Turning to `CN(C(=O)c1cc2ccc(F)cc2o1)c1ccccn1` [Example 38, 6-fluoro-N-methyl-N-(pyridin-2-yl)-1-benzofuran-2-carboxamide], the IC50 was more than 10 µM.

Regarding `CCn1c(C(=O)N(C)C23CC(F)(C2)C3)cc2ccnc(Cl)c21` [Example 153, 7-chloro-1-ethyl-N-(3-fluorobicyclo[1.1.1]pentan-1-yl)-N-methyl-1H-pyrrolo[2,3-c]pyridine-2-carboxamide], the IC50 was less than 0.1 µM.

On to `CN(C(=O)c1cc2cccc(Cl)c2[nH]1)c1ccccc1` [Example 19, 7-chloro-N-methyl-N-phenyl-1H-indole-2-carboxamide], for which the IC50 fell in the range of 0.1 to 1 µM.

Turning to `CC(C)N1CCCC(N(C)C(=O)c2cc3cccc(Cl)c3[nH]2)C1` (centres unmarked) [Example 44, 7-chloro-N-(1-isopropylpiperidin-3-yl)-N-methyl-1H-indole-2-carboxamide], the IC50 is more than 10 µM.

As to `Cc1ncoc1CN(C)C(=O)c1cc2cccc(Cl)c2[nH]1` [Example 97, 7-chloro-N-methyl-N-[(4-methyl-1,3-oxazol-5-yl)methyl]-1H-indole-2-carboxamide], the IC50 is more than 10 µM.

With `Cc1nccc2cc(C(=O)NC34CCC(C3)C4)n(C)c12` [Example 152, N-(bicyclo[2.1.1]hexan-1-yl)-1,7-dimethyl-1H-pyrrolo[2,3-c]pyridine-2-carboxamide], the IC50 was 1 to 10 µM.

Take `O=C(c1cc2ccc(F)cc2[nH]1)N(c1ccc(F)cc1)C1CCOC1` (centres unmarked) [Example 85, 6-fluoro-N-(4-fluorophenyl)-N-(tetrahydrofuran-3-yl)-1H-indole-2-carboxamide]: the IC50 is less than 0.1 µM.

For `COCCN(C(=O)c1cc2cccc(Cl)c2[nH]1)c1ccc(C#N)cc1` [Example 55, 7-chloro-N-(4-cyanophenyl)-N-(2-methoxyethyl)-1H-indole-2-carboxamide], the IC50 lay within 0.1 to 1 µM.

Turning to `CN(C(=O)c1cc2ccc(F)cc2[nH]1)c1cccnc1` [Example 14, 6-fluoro-N-methyl-N-(pyridin-3-yl)-1H-indole-2-carboxamide], the IC50 was more than 10 µM.

Take `COCCNC(=O)c1cc2ccc(F)cc2n1-c1ccc(C#N)cn1` [Example 52, 1-(5-cyanopyridin-2-yl)-6-fluoro-N-(2-methoxyethyl)-1H-indole-2-carboxamide]: the IC50 is more than 10 µM.
